Experimental data published in ChEMBL document CHEMBL1201862, “PubChem BioAssay data set” (2004).
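Compound exposure: 48 hours, 5 concentrations, 96-well plates. Here, GI50 denotes the concentration required for 50% inhibition of growth.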 Activity calls are given as the source filed them. Cut-off read from the data, not from the text of the source: active = GI50 up to about 1.1 µM and inactive = higher.

Tests used:
Assay in all cases: inhibition of tumour cell growth, NCI panel, 48 h
786-0 = tested on: 786-0
BT-549 = tested on: BT-549
COLO 205 = tested on: COLO 205
DU-145 = tested on: DU-145
EKVX = tested on: EKVX
HCT-116 = tested on: HCT-116
K562 = tested on: K562
NCI-H522 = tested on: NCI-H522
NCI/ADR-RES = tested on: NCI/ADR-RES
OVCAR-4 = tested on: OVCAR-4
PC-3 = tested on: PC-3
RPMI-8226 = tested on: RPMI-8226
RXF 393 = tested on: RXF 393
SF-268 = tested on: SF-268
SK-OV-3 = tested on: SK-OV-3
SNB-19 = tested on: SNB-19
UACC-62 = tested on: UACC-62
UO-31 = tested on: UO-31
HOP-62 = tested on: HOP-62
LOX IMVI = tested on: LOX IMVI

Row | SMILES | GI50 (786-0) | GI50 (BT-549) | GI50 (COLO 205) | GI50 (DU-145) | GI50 (EKVX) | GI50 (HCT-116) | GI50 (K562) | GI50 (NCI-H522) | GI50 (NCI/ADR-RES) | GI50 (OVCAR-4) | GI50 (PC-3) | GI50 (RPMI-8226) | GI50 (RXF 393) | GI50 (SF-268) | GI50 (SK-OV-3) | GI50 (SNB-19) | GI50 (UACC-62) | GI50 (UO-31) | GI50 (HOP-62) | GI50 (LOX IMVI)
1 | Cc1cccc2c1nc1n2C(=O)c2ccccc2-1 | > 100 µM (inactive) | > 100 µM (inactive) | > 100 µM (inactive) | > 100 µM (inactive) | > 100 µM (inactive) | > 100 µM (inactive) | > 100 µM (inactive) | > 100 µM (inactive) | > 100 µM (inactive) | > 100 µM (inactive) | > 100 µM (inactive) | > 100 µM (inactive) | > 100 µM (inactive) | > 100 µM (inactive) | > 100 µM (inactive) | > 100 µM (inactive) | > 100 µM (inactive) | > 100 µM (inactive) | – | –
2 | CC(C)C(Br)CCC1=CCC(Br)(Br)C1 (centres undefined) | 15.7 µM (inactive) | 20.2 µM (inactive) | 15.7 µM (inactive) | 18.4 µM (inactive) | 17.9 µM (inactive) | 14.6 µM (inactive) | 4.57 µM (inactive) | 2.35 µM (inactive) | 22.6 µM (inactive) | 9.1 µM (inactive) | 14.9 µM (inactive) | – | 15.2 µM (inactive) | 16.8 µM (inactive) | 13.1 µM (inactive) | 18 µM (inactive) | 6.58 µM (inactive) | 10.2 µM (inactive) | 17 µM (inactive) | 1.41 µM (inactive)
3 | NC(=O)OCc1c(-c2ccccc2)nn(-c2ccccc2)c1COC(N)=O | > 100 µM (inactive) | > 100 µM (inactive) | > 100 µM (inactive) | > 100 µM (inactive) | – | > 100 µM (inactive) | – | > 100 µM (inactive) | > 100 µM (inactive) | > 100 µM (inactive) | > 100 µM (inactive) | > 100 µM (inactive) | > 100 µM (inactive) | > 100 µM (inactive) | – | > 100 µM (inactive) | > 100 µM (inactive) | > 100 µM (inactive) | – | –
4 | S=c1[nH]nc(Cc2ccccc2)c(=S)[nH]1 | > 100 µM (inactive) | 35.2 µM (inactive) | > 79.6 µM (inactive) | 61.9 µM (inactive) | – | > 61 µM (inactive) | 61.1 µM (inactive) | > 51.1 µM (inactive) | 49.4 µM (inactive) | > 60.7 µM (inactive) | 24.9 µM (inactive) | 50.8 µM (inactive) | 32.8 µM (inactive) | 4.63 µM (inactive) | > 81.5 µM (inactive) | > 87.9 µM (inactive) | > 25.9 µM (inactive) | 46.5 µM (inactive) | > 75 µM (inactive) | > 52.7 µM (inactive)
5 | Nc1cc2nc(-c3ccccc3)cn2cn1 | > 100 µM (inactive) | > 100 µM (inactive) | > 100 µM (inactive) | > 100 µM (inactive) | 29.3 µM (inactive) | > 100 µM (inactive) | > 100 µM (inactive) | – | > 100 µM (inactive) | > 100 µM (inactive) | 50 µM (inactive) | 65 µM (inactive) | 50.9 µM (inactive) | > 100 µM (inactive) | > 100 µM (inactive) | > 100 µM (inactive) | 54.6 µM (inactive) | 32.4 µM (inactive) | > 100 µM (inactive) | 84.5 µM (inactive)
6 | COC1CCON1C(=O)c1ccccc1 (centres undefined) | > 10 µM (inactive) | > 10 µM (inactive) | > 10 µM (inactive) | > 10 µM (inactive) | > 10 µM (inactive) | > 10 µM (inactive) | > 10 µM (inactive) | > 10 µM (inactive) | > 10 µM (inactive) | > 10 µM (inactive) | > 10 µM (inactive) | > 10 µM (inactive) | > 10 µM (inactive) | > 10 µM (inactive) | > 10 µM (inactive) | > 10 µM (inactive) | – | > 10 µM (inactive) | > 10 µM (inactive) | > 10 µM (inactive)
7 | COc1cc(-c2nc(SC)nc3c2CCc2ccccc2-3)cc(OC)c1OC | 50.6 µM (inactive) | > 100 µM (inactive) | 53.5 µM (inactive) | 79.8 µM (inactive) | 29.1 µM (inactive) | 47.8 µM (inactive) | 22.3 µM (inactive) | – | 36.3 µM (inactive) | 65 µM (inactive) | 34.5 µM (inactive) | 25.8 µM (inactive) | 36 µM (inactive) | 91.2 µM (inactive) | > 100 µM (inactive) | > 100 µM (inactive) | 82.4 µM (inactive) | 46.3 µM (inactive) | > 100 µM (inactive) | 91.8 µM (inactive)
8 | COc1ccc(/C=C2\N=C(N3CCCC(CO)C3)NC2=O)cc1 (centres undefined) | > 100 µM (inactive) | > 100 µM (inactive) | > 100 µM (inactive) | > 100 µM (inactive) | > 100 µM (inactive) | > 100 µM (inactive) | – | > 100 µM (inactive) | > 100 µM (inactive) | > 100 µM (inactive) | > 100 µM (inactive) | > 100 µM (inactive) | > 100 µM (inactive) | > 100 µM (inactive) | > 100 µM (inactive) | > 100 µM (inactive) | > 100 µM (inactive) | > 100 µM (inactive) | > 100 µM (inactive) | > 100 µM (inactive)
9 | CCOC(=O)CNC(=O)CNC(=O)CNC(=O)CNNc1c(OCc2ccccc2)c(=O)c1=O | > 100 µM (inactive) | > 100 µM (inactive) | > 100 µM (inactive) | > 100 µM (inactive) | > 100 µM (inactive) | > 100 µM (inactive) | > 100 µM (inactive) | > 100 µM (inactive) | > 100 µM (inactive) | > 100 µM (inactive) | > 100 µM (inactive) | > 100 µM (inactive) | > 100 µM (inactive) | > 100 µM (inactive) | > 100 µM (inactive) | > 100 µM (inactive) | > 100 µM (inactive) | > 100 µM (inactive) | > 100 µM (inactive) | –
10 | COC(=O)C1(C(=O)OC)N=C(C)OC1c1ccoc1 (centres undefined) | > 100 µM (inactive) | > 100 µM (inactive) | > 100 µM (inactive) | > 100 µM (inactive) | > 100 µM (inactive) | > 100 µM (inactive) | 99.8 µM (inactive) | – | > 100 µM (inactive) | > 100 µM (inactive) | > 100 µM (inactive) | > 100 µM (inactive) | > 100 µM (inactive) | – | > 100 µM (inactive) | > 100 µM (inactive) | > 100 µM (inactive) | > 100 µM (inactive) | > 100 µM (inactive) | > 100 µM (inactive)
11 | Oc1cccc(-c2cn3cc(Cl)ccc3n2)c1 | 66.2 µM (inactive) | 51.1 µM (inactive) | 33.6 µM (inactive) | 31 µM (inactive) | 24.3 µM (inactive) | 57.9 µM (inactive) | 42.1 µM (inactive) | 15.9 µM (inactive) | 34.5 µM (inactive) | 32.1 µM (inactive) | 29.2 µM (inactive) | – | 23.1 µM (inactive) | 55.1 µM (inactive) | 96.6 µM (inactive) | > 100 µM (inactive) | 35.1 µM (inactive) | 36.7 µM (inactive) | > 100 µM (inactive) | 45.7 µM (inactive)
12 | C=CCN1C(=O)CC2[C@@H]3CCc4cc(O)ccc4C3CC[C@]2(C)C1=O (some centres undefined) | > 10 µM (inactive) | > 10 µM (inactive) | > 10 µM (inactive) | > 10 µM (inactive) | > 10 µM (inactive) | > 10 µM (inactive) | > 10 µM (inactive) | – | > 10 µM (inactive) | > 10 µM (inactive) | > 10 µM (inactive) | > 10 µM (inactive) | > 10 µM (inactive) | > 10 µM (inactive) | > 10 µM (inactive) | > 10 µM (inactive) | > 10 µM (inactive) | > 10 µM (inactive) | > 10 µM (inactive) | > 10 µM (inactive)
13 | CN(CCc1ccc(Br)cc1)CCN1CCCCC1 | 30.1 µM (inactive) | 24.8 µM (inactive) | 16.3 µM (inactive) | 99.5 µM (inactive) | > 100 µM (inactive) | 17.7 µM (inactive) | 15.1 µM (inactive) | 21.6 µM (inactive) | 46.5 µM (inactive) | 54.8 µM (inactive) | 27.2 µM (inactive) | 62.5 µM (inactive) | 36.4 µM (inactive) | 65.3 µM (inactive) | 55.8 µM (inactive) | > 100 µM (inactive) | – | 36.1 µM (inactive) | 31.8 µM (inactive) | 28.6 µM (inactive)
14 | C=C(C)[C@@]12C[C@H](OC(=O)[C@H](O)[C@@H](NC(=O)c3ccccc3)c3ccccc3)C(C)=C1[C@@H](OC(C)=O)C(=O)[C@@]1(C)C([C@@H]2OC(=O)c2cc(F)cc(F)c2)C2(OC(C)=O)CO[C@@H]2C[C@@H]1O (some centres undefined) | 0.0853 µM (active) | 0.194 µM (active) | 0.0789 µM (active) | 0.267 µM (active) | 1.02 µM (active) | 0.0201 µM (active) | 0.0361 µM (active) | – | 1.57 µM (inactive) | 2.38 µM (inactive) | 0.0826 µM (active) | 0.0236 µM (active) | 0.0578 µM (active) | 0.161 µM (active) | 0.417 µM (active) | 0.238 µM (active) | 0.076 µM (active) | 0.973 µM (active) | 0.123 µM (active) | 0.0791 µM (active)
15 | CC(C)(O)[C@@H]1CC[C@](C)(C2[C@@H](O)C[C@@]3(C)C4C[C@H](OC5OCC(O)C(O)C5O)[C@H]5C(C)(C)[C@@H](OC6OCC(O)C(O)C6OC6OCC(O)C(O)C6O)CC[C@@]56C[C@@]46CC[C@]23C)O1 (some centres undefined) | > 100 µM (inactive) | > 100 µM (inactive) | > 100 µM (inactive) | > 100 µM (inactive) | > 100 µM (inactive) | > 100 µM (inactive) | > 100 µM (inactive) | > 100 µM (inactive) | > 100 µM (inactive) | > 100 µM (inactive) | > 100 µM (inactive) | > 100 µM (inactive) | > 100 µM (inactive) | > 100 µM (inactive) | > 100 µM (inactive) | > 100 µM (inactive) | > 100 µM (inactive) | > 100 µM (inactive) | > 100 µM (inactive) | –
